Legend:
[1] = biological target: T1, A. nidulans bimC motor domain (Emericella nidulans, UniProt P17120); assay: ATPase assay of bimC motor domain (ATP hydrolysis, ADP or phosphate readout); type: biochemical, Aspergillus nidulans; conditions: bimC kinesin motor domain; motor domain fragment cloned and expressed in bacteria; FIG. 14
T1 construct: ATPase (bimC kinesin motor domain); made in house; host or cells: bacteria
T1 sequence (P17120 81-416 limits assumed): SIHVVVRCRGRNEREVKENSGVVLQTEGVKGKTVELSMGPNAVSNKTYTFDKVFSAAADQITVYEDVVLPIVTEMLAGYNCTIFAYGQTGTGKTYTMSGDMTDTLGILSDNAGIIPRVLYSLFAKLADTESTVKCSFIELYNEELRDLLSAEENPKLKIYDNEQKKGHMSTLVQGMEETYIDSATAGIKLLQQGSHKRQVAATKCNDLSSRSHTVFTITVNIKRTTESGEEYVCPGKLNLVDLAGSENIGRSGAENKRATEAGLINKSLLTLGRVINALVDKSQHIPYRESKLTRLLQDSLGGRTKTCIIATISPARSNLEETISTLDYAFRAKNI
From the text: FIG. 12 depicts the cloning and expression of A. nidulans bimC motor domain. In Panel A, an overview of the express is shown. The fragment containing the bimC motor domain is indicated by a filled semi-circle. In B, a Coomassie stained gel of the purification of bimC motor domain is shown.
Aspergillus nidulans bimC is a kinesin related protein (KRP) whose gene product encodes an essential mitotic KRP. BimC is the founding member of the bimC subfamily of mitotic kinesins (Morris NR, Enos AP. (1992) Trends Genet 8:1 32-7). Mutants in bimC are blocked in mitosis and arrest with duplicated but unseparated spindle poles. (Enos AP, Morris NR. (1990) Cell 60:6 1019-27). Following the discovery that bimC encodes a KRP, several bimC family members have been identified in diverse organisms ranging from yeast to humans. See. FIG. 1. […]
In a particularly preferred embodiment, a fragment of the bimC protein comprising its hydrolytically active “motor” domain is used. This motor domain has been cloned and expressed in bacteria such that large quantities of biochemically active, substantially pure protein are available (FIG. 12). […]
In a preferred embodiment, activity is measured by the methods disclosed in Serial No. 09/314,464, filed May 18, 1999, which is incorporated herein by reference in its entirety. […] The presence of ADP or inorganic phosphate release is used as the readout for protein activity. […]

fungal tubulin = conditions: cited from earlier work
mammalian tubulin = conditions: cited from earlier work

IC50 [1] [µM]	Compound	inhibition of fungal tubulin (fungal tubulin)	effect on mammalian tubulin (mammalian tubulin)
25	O=C1OC(c2ccco2)=N/C1=C\c1ccc(Br)s1 [D00018 row 1]	–	–
–	CCCCNC(=O)n1c(NC(=O)OC)nc2ccccc21 [benomyl]	potent inhibitor	no effect
